Test results published in EPA's ToxValDB 9.5.
≈ marks a conversion by molar mass, not a printed value. Each block holds one molecule with its values, some of them ahead of it.

Experiments:
[1] = tested on: Bibionidae; details: chronic/long-term
[2] = tested on: Cyprinodon variegatus; details: acute; duration: 96 hours
[3] = tested on: Daphnia magna; details: chronic/long-term, duration: 21 days
[4] = tested on: Oncorhynchus mykiss; details: for LC50: acute, duration: 96 hours
[5] = tested on: Rattus norvegicus; details: for LD50: acute, mortality
[6] = tested on: Canidae; details: oral, Dog Other; for LEL: diet
[7] = tested on: Lepomis macrochirus; details: acute, duration: 96 hours
[8] = tested on: Bovidae; details: short-term; duration: 14 days; oral; gavage; F; clinical signs
[9] = tested on: Equus caballus
[10] = tested on: Oryctolagus sp.
[11] = tested on: Pontoscolex corethrurus
[12] = tested on: Anatidae; details: subchronic; duration: 41 days; oral; feed; M/F; no effects
[13] = tested on: Homo sapiens; details: clinical
[14] = tested on: Gallus gallus; details: oral, diet
[15] = tested on: Macromiidae; details: acute; duration: 72 hours; growth
[16] = tested on: Evynnis japonica; details: acute; duration: 12 hours; mortality
[17] = tested on: Metacarcinus magister; details: chronic/long-term; duration: 200 hours; mortality
[18] = tested on: Typhlodromus pyri; test: LR50; higher = less toxic; details: not reported; mortality
[19] = tested on: Colinus virginianus; details: reproduction developmental
[20] = tested on: Tagia sp.; details: chronic/long-term; duration: 56 days
[21] = tested on: Sus scrofa; details: Not specified
[22] = tested on: Capra sp.; details: subchronic
[23] = tested on: Ovis sp.; details: subchronic, oral
[24] = tested on: Danio rerio; details: acute; duration: 96 hours; mortality
[25] = tested on: Meleagris sp.; details: not reported; no effects

Compound: CCOP(=O)(NC(C)C)Oc1ccc(SC)c(C)c1 (stereo unspecified) [Fenamiphos]
NOEC ([1]; duration: 28 days): 1.31 µg/L | LC50 [2]: 0.017 µg/mL (≈ 0.056 µM) | NOEC [3]: 0.00012 mg/L | NOEC ([4]; chronic/long-term, duration: 91 days): 0.0038 mg/L | LD50 [5]: 6 mg/kg-day | NOAEL ([6]; acute, neurology): 0.25 mg/kg-day | NOAEL ([6]; chronic, duration: 1 years, neurology): 0.083 mg/kg-day | LC50 [7]: 0.0093 µg/mL (≈ 0.0307 µM)

Compound: CC[C@@H](C(=O)O)[C@@H]1O[C@@H]([C@@H](C)[C@H](O)[C@H](C)C(=O)[C@H](CC)[C@H]2O[C@]3(C=C[C@@H](O)[C@]4(CC[C@@](C)([C@H]5CC[C@](O)(CC)[C@H](C)O5)O4)O3)[C@H](C)C[C@@H]2C)[C@@H](C)C[C@@H]1C [Narasin]
NOEL [8]: 0.5 mg/kg-day | LEL ([9]; short-term, duration: 1 months, oral, feed, M/F, food consumption): 80 mg/kg | LC50 ([4]; mortality): 2.23 µg/mL (≈ 2.91 µM) | LEL ([10]; acute, Hungarian, clinical signs): ≥ 35 mg/kg-day | NOAEL ([6]; chronic, duration: 1 years, capsule, M/F, histopathology: nonneoplastic): 0.5 mg/kg-day | NOEC ([11]; acute, duration: 7 days, body weight): 4.3 mg/kg | LEL [12]: 280 mg/kg

Compound: [O-][Cl+2]([O-])[O-] [Chlorate]
NOEL ([13]; duration: 12 weeks, oral, drinking water, M, no effects): 0.036 mg/kg-day

Compound: O=C([O-])CC[C@@H](C(=O)[O-])N(CC(=O)[O-])CC(=O)[O-].[Na+].[Na+].[Na+].[Na+] [Tetrasodium glutamate diacetate]
LEL ([14]; subchronic, duration: 35 days, M, Chicken, body weight): 10000 mg/kg-day | NOAEL ([10]; reproduction developmental, duration: 21 days, oral, gavage, F, New Zealand, clinical signs): 20 mg/kg-day | NOEC ([11]; reproductive, no effects): 248 mg/kg | NOEC [15]: 1 mg/L

Compound: [Al+3].[Al+3].[O-2].[O-2].[O-2].[O-2].[O-2].[Si+4] [Aluminum oxide silicate  (Al2O(SiO4))]
LC50 [16]: 494 µg/mL | NOEC ([4]; chronic/long-term, duration: 30 days, mortality): 100 mg/L | LD50 ([5]; oral): > 5000 mg/kg | LC50 [17]: 32000 µg/mL

Compound: CC1=C(/C=C/C(C)=C/C=C/C(C)=C/C=C/C=C(C)/C=C/C=C(C)/C=C/C2=C(C)C(=O)CCC2(C)C)C(C)(C)CCC1=O [Canthaxanthin]
NOAEL ([13]; ophthalmoscopic examination): 0.25 mg/kg-day

Compound: CC(C)C1(C)N=C(c2nc3ccccc3cc2C(=O)O)NC1=O (stereo unspecified) [Imazaquin]
LR50 [18]: > 4 g/ha | NOEC ([1]; duration: 28 days, other): 228 mg/kg | NOEC [19]: 16.6 mg/kg-day | NOEC ([3]; reproduction): 100 mg/L | NOEC ([4]; chronic/long-term, duration: 28 days, growth): 51.2 mg/L | NOAEL ([10]; reproduction developmental, mortality): 250 mg/kg-day | NOAEL ([6]; chronic, duration: 1 years, clinical signs): 25 mg/kg-day | NOEC [20]: 0.0275 mg/kg

Compound: Cc1cc2c(C(C)C)c(O)c(O)c(C=O)c2c(O)c1-c1c(C)cc2c(C(C)C)c(O)c(O)c(C=O)c2c1O [Gossypol]
NOAEL ([21]; repeat dose other, organ weight): 3 mg/kg-day | NOAEL ([14]; short-term, duration: 20 days, histopathology: nonneoplastic): 20 mg/kg-day | LOAEL ([4]; chronic/long-term, duration: 10 months, oral, feed, F, development): 140 mg/kg | LEL ([10]; subchronic, duration: 8 weeks, oral, gavage, M, New Zealand, clinical chemistry): 4 mg/kg-day | LEL ([6]; repeat dose other, mortality): 5 mg/kg-day | LEL ([22]; duration: 90 days, oral, feed, growth): ≥ 15 mg/kg-day | LOAEL ([23]; duration: 30 days, capsule, gross pathology): 3 mg/kg-day

Compound: O=C1O[C@H]([C@@H](O)CO)C(O)=C1O [L-Ascorbic acid]
LC50 ([4]; mortality): 1020 µg/mL (≈ 5790 µM) | LC50 [24]: 32 µg/mL (≈ 182 µM)

Compound: Cc1cc(C2CC2)nc(Nc2ccccc2)n1 [Cyprodinil]
NOEC ([1]; duration: 27 days): 80 mg/kg | NOEC ([1]; duration: 28 days): 240 µg/L | NOEC [3]: 0.0018 mg/L | LC50 ([4]; mortality): 1.35 µg/mL (≈ 5.99 µM) | NOEC ([4]; chronic/long-term, duration: 21 days): 0.083 mg/L | LC50 ([7]; mortality): 2.17 µg/mL (≈ 9.63 µM)

Compound: O=[N+]([O-])c1ccc([As](=O)(O)O)cc1 [Nitarsone]
NOEL ([5]; chronic, duration: 2 years, oral, diet, M/F, Long-Evans, histopathology: nonneoplastic): 2 mg/kg-day | LEL ([6]; subchronic, duration: 90 days, no effects): 37.5 mg/kg-day | LEL [25]: 750 mg/kg

LEL ([9]; acute, no effects): 0.5 mg/kg | LEL ([22]; duration: 56 days, food consumption): 300 mg/kg-day
Compound: Cn1cnc2c1c(=O)[nH]c(=O)n2C [Theobromine]
NOAEL ([21]; subchronic, oral, diet, growth): 7 mg/kg-day | NOAEL ([10]; developmental, development): 21 mg/kg-day | NOAEL ([23]; duration: 3 months, diet, food consumption): 35 mg/kg-day
